Measurements taken from patent publication US20250144172A1, “ANTI-FIBROTIC SIALIDASE INHIBITOR COMPOUNDS AND METHODS OF USE” (The Texas A&M University System, priority 2016, published 2025).
Like-named read-outs stand apart in the source and are kept apart here.

What was measured:
[1] = target: LPS-induced mouse macrophage sialidase activity; conditions: cited from earlier work
[2] = test system: human PBMC; test: TGF-β1 accumulation by human PBMC (antibody staining and ELISA); assay type: cell-based; conditions: inhibitor 3 μM; sialidases 200 ng/ml; 5 days; ELISA
Procedure: To determine if sialidases might cause cells to accumulate intracellular and extracellular TGF-β1, human PBMC were cultured with sialidases in 96 well plates at 5×10^5 cells/ml and 200 μl/well in FibroLife serum-free medium for five days, then air dried. The levels of TGF-β1 in or on the cells was detected by staining with an antibody against TGF-β1. Photomicrographs were analyzed by counting stained cells (FIG. 7B) and quantifying staining intensity using ImageJ (FIG. 7C).
PBMC were cultured in 96 well plates at 5×10^5 cells/ml and 200 μl/well in FibroLife serum-free medium. When the cells were plated, recombinant human sialidases were added to final concentrations of 200 ng/ml, and DANA or oseltamivir were added to 3 μM. After 5 days, culture supernatants were analyzed using a TGF-β1 ELISA kit (R&D Systems).

[3] = test system: murine sialidases; conditions: mice, cited from earlier work
[4] = test system: human sialidases; conditions: all four human sialidases; carboxylate form; cited from earlier work
[5] = test system: mice with bleomycin-induced fibrosis; test: mouse bleomycin model of pulmonary fibrosis; assay type: in vivo; conditions: day 21
Procedure: The successful aspiration of bleomycin into the lungs was confirmed by listening for a crackling noise heard after the aspiration. Mice were weighed daily, and euthanized using CO2 following NIH guidelines at day 21 after bleomycin aspiration. The experiment was performed in accordance with the recommendations in the Guide for the Care and Use of Laboratory Animals of the National Institutes of Health. The Texas A&M University Animal Use and Care Committee approved the protocol.
The BALs were clarified by centrifugation at 500×g for 10 minutes, and the supernatants were transferred to Eppendorf tubes. The supernatants were flash frozen with liquid nitrogen, and stored at −20° C. until further use.
After collection of BAL fluid, mouse lungs were inflated with prewarmed Optimal Cutting Temperature (OCT) embedding medium (VWR, Radnor, PA) and then embedded in OCT, frozen on dry ice, and then stored at −80° C. 6-micron cryosections of mouse lungs were mounted on Superfrost Plus® microscope slides (VWR). The sections on the slides were allowed to air-dry for 24-48 hours. The slides were then fixed in acetone at room temperature for 20 minutes and air-dried for 10 minutes.
Then, starting 24 hours after bleomycin had been administered, the mice were given daily intraperitoneal injections of 10 mg/kg DANA (Calbiochem) in PBS or 10 mg/kg oseltamivir (Sigma) in PBS. Both inhibitors are quite polar and thus probably remain in the extracellular space. Assuming 2 ml of extracellular space in a 20 gram mouse, these doses would then be ˜3 μM. At day 21, mice were sacrificed and BAL and cryosections of lungs were obtained as described for Example 3. The experiment was performed in accordance with the recommendations in the Guide for the Care and Use of Laboratory Animals of the National Institutes of Health. The Texas A&M University Animal Use and Care Committee approved the protocol.
Treatment of mice with oropharyngeal bleomycin results in an initial inflammation, and then a fibrosis that has begun by day 10 after bleomycin treatment. To determine if sialidase inhibitors decrease fibrosis when treatment starts after the initial inflammation stage and when fibrosis is present, mice were treated with oropharyngeal bleomycin to induce symptoms of pulmonary fibrosis as described above. Then, starting 10 days after bleomycin had been administered, the mice were given daily intraperitoneal injections of 10 mg/kg DANA (Calbiochem) in PBS or 10 mg/kg oseltamivir (Sigma) in PBS. At day 21, mice were sacrificed and BAL and cryosections of lungs were obtained as described above. The experiment was performed in accordance with the recommendations in the Guide for the Care and Use of Laboratory Animals of the National Institutes of Health. The Texas A&M University Animal Use and Care Committee approved the protocol.
To determine if sialidase inhibitors could also reduce TGF-β1 levels in mice, mice were treated with bleomycin or saline, then injected daily with saline, DANA or oseltamivir starting at day 10 after bleomycin treatment, as described in Example 9. The mice were euthanized at day 21 and sections of lung tissue were stained for TGF-β1. Results are presented in FIG. 11A and are representative of results for three mice per group.

[6] = 10 mg/kg daily i.p. starting at day 10

CCC(CC)[C@H](NC(C)=O)[C@@H]1[C@H](O)[C@@H](C(=O)O)C[C@H]1N=C(N)N [Compound 58, (1S,2S,3S,4R)-3-[(1S)-1-acetamido-2-ethyl-butyl]-4-(diaminomethylideneamino)-2-hydroxy-cyclopentane-1-carboxylic acid]
IC50 [1]: 1 µM | effects of NEU2 and NEU3 on extracellular TGF-β1 [2]: blocked | inhibitor of murine sialidases ([3]; listed as Oseltamivir): potent sialidase inhibitor in mice | inhibitor of murine sialidases ([3]; listed as oseltamivir): potent inhibitor | inhibitor of human sialidases [4]: poor inhibitor | collagen deposition in the lungs (Sirius red) ([5]; 10 mg/kg daily i.p. starting 24 hours after bleomycin): reduced | collagen deposition in the lungs (Sirius red) [5, 6]: reduced | total protein in BAL [5, 6]: attenuated | TGF-β1 levels in lung tissue (staining) ([5]; daily injection starting at day 10): reduced TGF-β1 levels
